The values below come from publication PMC8694143 (Microbiology Spectrum, 2021).

One data set relates to SspA. Put plainly: SspA protease resuspended at 2 mg/mL in 100 mM HEPES (pH 7.8). Particulars: 37°C, up to 5 h.
Another data set has as its system M. luteus ATCC 4698. Put plainly: MIC determination in broth. The data set is classed as cell-based, Micrococcus luteus. Particulars: cation-adjusted MH broth, ~10^5 CFU/mL, 30°C, 48 h. The method, then: (§1) M. luteus ATCC 4698, S. aureus ATCC 29213, a panel of 7 MRSA (ATCC MP-2) strains, which includes ATCC BAA-41, BAA-42, BAA-44, BAA-1683, BAA-2094, BAA-2313, and 33592, and a series of additional bacterial isolates from human and veterinary cases were used in this study (Table S6). Bacterial strains were routinely grown in lysogeny broth (LB: 10 g/L tryptone, 5 g/L yeast extract, 10 g/L NaCl) at 30°C (M. luteus) or 37°C (Staphylococcus spp.) prior to use in specific experiments described below.
(§2) The MICs were measured for bioactive peptides identified from the initial screen. Cation-adjusted Mueller-Hinton (MH) broth was used as the growth medium for MIC determination experiments. Bacterial cultures were diluted to an OD of 5 × 10^−4 (∼10^5 CFU/mL) in 200 μL MH broth mixed with peptides in a 2-fold dilution series arrayed in 96-well plates. Plates were incubated without shaking at 30 or 37°C depending on the organism.

The test system of another data set is MRSA ATCC BAA-2094. The data set can be described thus: MIC determination in broth. Format: cell-based, Staphylococcus aureus. Particulars: STIP3 variants, highest conc. tested 100 μg/mL; cation-adjusted MH broth, ~10^5 CFU/mL, 2-fold dilution series, 37°C, 16 h. The method, then:
as §1, §2

The subject of a further data set is MRSA ATCC 33592. Put plainly: MIC determination in broth. Format: cell-based, Staphylococcus aureus. Particulars: Table S5; STIP3 variants, highest conc. tested 100 μg/mL; cation-adjusted MH broth, ~10^5 CFU/mL, 2-fold dilution series, 37°C, 16 h. The method, then:
as §1, §2

The next data set has as its system MRSA ATCC BAA-44. Put plainly: MIC determination in broth. The data set is classed as cell-based, Staphylococcus aureus. Particulars: STIP3 variants, highest conc. tested 100 μg/mL; cation-adjusted MH broth, ~10^5 CFU/mL, 2-fold dilution series, 37°C, 16 h. As for the experimental part: as §1, §2
The next data set concerns S. aureus ATCC 29213. Put plainly: MIC determination in broth. Format: cell-based, Staphylococcus aureus. Particulars: STIP3 variants, highest conc. tested 100 μg/mL; cation-adjusted MH broth, ~10^5 CFU/mL, 2-fold dilution series, 37°C, 16 h. As for the experimental part:
as §1, §2

In a further data set the test system is MRSA ATCC BAA-1683. The data set can be described thus: MIC determination in broth. The data set is classed as cell-based, Staphylococcus aureus. Particulars: STIP3 variants, highest conc. tested 100 μg/mL; cation-adjusted MH broth, ~10^5 CFU/mL, 2-fold dilution series, 37°C, 16 h. The method, then:
as §1, §2

For a further data set, the system named is MRSA ATCC BAA-2313. Put plainly: MIC determination in broth. The data set is classed as cell-based, Staphylococcus aureus. Particulars: STIP3 variants, highest conc. tested 100 μg/mL; cation-adjusted MH broth, ~10^5 CFU/mL, 2-fold dilution series, 37°C, 16 h. As for the experimental part: as §1, §2
Another data set deals with MRSA ATCC BAA-42. The data set can be described thus: MIC determination in broth. The data set is classed as cell-based, Staphylococcus aureus. Particulars: STIP3 variants, highest conc. tested 100 μg/mL; cation-adjusted MH broth, ~10^5 CFU/mL, 2-fold dilution series, 37°C, 16 h. As for the experimental part: as §1, §2
In a further data set the test system is MRSA ATCC BAA-41. The data set can be described thus: MIC determination in broth. The data set is classed as cell-based, Staphylococcus aureus. Particulars: STIP3 variants, highest conc. tested 100 μg/mL; cation-adjusted MH broth, ~10^5 CFU/mL, 2-fold dilution series, 37°C, 16 h. The method, then: as §1, §2

Entries after “also recorded” stand apart in the source; their conditions may differ. No end group written: not given here.

MTKDIVETVGGLVKWILDTVKKFA: the fragment found result in the data set on SspA is given as “TVGGLVKWILDTVKKFA; also recorded: TVGGLVKWILD; also recorded: TVKKFA; also recorded: MTKDIVE”.
Turning to TAGGLVKWILDTVKKFA [V2A], the “MIC, M. luteus” value in the data set with M. luteus ATCC 4698 worked out at 50 µg/mL.
Consider TVGGAVKWILDTVKKFA [L5A], for which the “MIC, M. luteus” value in the data set with M. luteus ATCC 4698 was determined as 100 µg/mL.
In the case of TVGGLAKWILDTVKKFA [V6A], the “MIC, M. luteus” value with M. luteus ATCC 4698 turned out to be 50 µg/mL.
The same measure, in the same setting: the value for TVGGLVKAILDTVKKFA [W8A] was 100 µg/mL.
Take “TVKALVKWILKTVAKFW-NH2 [STIP3-31, rationally designed STIP3-1 variant, C-terminal amide]”: the “MIC, S. aureus ATCC BAA 2094 (SCCmec V)” value against MRSA ATCC BAA-2094 was 25 µg/mL. For the same substance, the “MIC, S. aureus ATCC 33592 (SCCmec III)” value against MRSA ATCC 33592 came to 25 µg/mL. For the same substance, the “MIC, S. aureus ATCC BAA 44 (SCCmec I)” value with MRSA ATCC BAA-44 stood at 25 µg/mL. The “MIC, S. aureus ATCC 29213” value with S. aureus ATCC 29213 amounted to 25 µg/mL. The “MIC, S. aureus ATCC BAA 1683 (SCCmec IV)” value against MRSA ATCC BAA-1683 came out at 25 µg/mL. The “MIC, S. aureus ATCC BAA 2313 (SCCmec XI)” value against MRSA ATCC BAA-2313 was 25 µg/mL. In addition, in the data set on MRSA ATCC BAA-42, the “MIC, S. aureus ATCC BAA 42 (SCCmec VI)” value came out at 50 µg/mL. Further, the “MIC, S. aureus ATCC BAA 41 (SCCmec II)” value in the data set on MRSA ATCC BAA-41 turned out to be 25 µg/mL.
Take “TVKFLVKWILKWVAKFA [STIP3-25, rationally designed STIP3-1 variant]”: the “MIC, S. aureus ATCC BAA 2094 (SCCmec V)” value in the data set with MRSA ATCC BAA-2094 is “> (The > symbol indicates that no inhibition was observed at 100 μg/mL for the STIP3 variants)”. Also, the “MIC, S. aureus ATCC 33592 (SCCmec III)” value in the data set with MRSA ATCC 33592 is on record as “> (The > symbol indicates that no inhibition was observed at 100 μg/mL for the STIP3 variants)”. In addition, the “MIC, S. aureus ATCC BAA 44 (SCCmec I)” value in the data set on MRSA ATCC BAA-44 is “> (The > symbol indicates that no inhibition was observed at 100 μg/mL for the STIP3 variants)”. Also, the “MIC, S. aureus ATCC 29213” value in the data set on S. aureus ATCC 29213 is listed as “> (The > symbol indicates that no inhibition was observed at 100 μg/mL for the STIP3 variants)”. Also, the “MIC, S. aureus ATCC BAA 1683 (SCCmec IV)” value with MRSA ATCC BAA-1683 is “> (The > symbol indicates that no inhibition was observed at 100 μg/mL for the STIP3 variants)”. Further, the “MIC, S. aureus ATCC BAA 2313 (SCCmec XI)” value against MRSA ATCC BAA-2313 is given as “> (The > symbol indicates that no inhibition was observed at 100 μg/mL for the STIP3 variants)”. In addition, in the data set on MRSA ATCC BAA-42, the “MIC, S. aureus ATCC BAA 42 (SCCmec VI)” value was “> (The > symbol indicates that no inhibition was observed at 100 μg/mL for the STIP3 variants)”. In addition, the “MIC, S. aureus ATCC BAA 41 (SCCmec II)” value in the data set on MRSA ATCC BAA-41 is reported as “> (The > symbol indicates that no inhibition was observed at 100 μg/mL for the STIP3 variants)”.
For “TVKGLVKWILATVKKFA [STIP3-16, rationally designed STIP3-1 variant]”, the “MIC, S. aureus ATCC BAA 2094 (SCCmec V)” value against MRSA ATCC BAA-2094 is 100 µg/mL. The “MIC, S. aureus ATCC 33592 (SCCmec III)” value in the data set with MRSA ATCC 33592 was 50 µg/mL. In addition, the “MIC, S. aureus ATCC BAA 44 (SCCmec I)” value in the data set with MRSA ATCC BAA-44 came out at 100 µg/mL. In addition, the “MIC, S. aureus ATCC 29213” value against S. aureus ATCC 29213 turned out to be 100 µg/mL. Moreover, the “MIC, S. aureus ATCC BAA 1683 (SCCmec IV)” value with MRSA ATCC BAA-1683 was “> (The > symbol indicates that no inhibition was observed at 100 μg/mL for the STIP3 variants)”. In the data set with MRSA ATCC BAA-2313, the “MIC, S. aureus ATCC BAA 2313 (SCCmec XI)” value is 100 µg/mL. For the same substance, in the data set on MRSA ATCC BAA-42, the “MIC, S. aureus ATCC BAA 42 (SCCmec VI)” value came out at 50 µg/mL. For the same substance, in the data set on MRSA ATCC BAA-41, the “MIC, S. aureus ATCC BAA 41 (SCCmec II)” value stood at 50 µg/mL.
